These results are taken from patent publication US20110212999A1, “TRIAZOLE DERIVATIVES AND THEIR USE AS NICOTINIC ACETYLCHOLINE RECEPTOR MODULATORS” (NEUROSEARCH A/S, priority 2008, published 2011).

Data set [1] addresses T1, human nicotinic acetylcholine receptor subtype a4b2 (Homo sapiens, UniProt P17787+P43681).
T1 construct: expressed in transfected cells; host or cells: HEK-293
Kind of data set: FLIPR nAChR a4b2 positive allosteric modulator activity (shift of nicotine concentration-response). The data set is classed as cell-based. The following applies: nicotine +/- test compound, HEK-293 cells stably expressing hα4β2. On the procedure: Characterization of hα4β2 positive allosteric modulators using FLIPR
The modulator activity is determined as a fluorescence-based assay using a Fluorometric Imaging Plate Reader (FLIPR) as described below in more detail.
Full concentration-response curves of nicotine +/− test compound are generated and delta pEC50 values are calculated based on EC50 values for nicotine +/− test compound. EC50 values (Effective Concentration 50%) represent the concentration of the nicotine, at which the nicotine-induced response is 50% of the maximal nicotine-induced response.
Preferred compounds of the invention show an activity determined as delta pEC50 values above 1 in the presence of 10 μM of the test compound compared to nicotine alone.

The structures appear in SMILES notation.

T1 sequence (P43681 29-627 limits assumed): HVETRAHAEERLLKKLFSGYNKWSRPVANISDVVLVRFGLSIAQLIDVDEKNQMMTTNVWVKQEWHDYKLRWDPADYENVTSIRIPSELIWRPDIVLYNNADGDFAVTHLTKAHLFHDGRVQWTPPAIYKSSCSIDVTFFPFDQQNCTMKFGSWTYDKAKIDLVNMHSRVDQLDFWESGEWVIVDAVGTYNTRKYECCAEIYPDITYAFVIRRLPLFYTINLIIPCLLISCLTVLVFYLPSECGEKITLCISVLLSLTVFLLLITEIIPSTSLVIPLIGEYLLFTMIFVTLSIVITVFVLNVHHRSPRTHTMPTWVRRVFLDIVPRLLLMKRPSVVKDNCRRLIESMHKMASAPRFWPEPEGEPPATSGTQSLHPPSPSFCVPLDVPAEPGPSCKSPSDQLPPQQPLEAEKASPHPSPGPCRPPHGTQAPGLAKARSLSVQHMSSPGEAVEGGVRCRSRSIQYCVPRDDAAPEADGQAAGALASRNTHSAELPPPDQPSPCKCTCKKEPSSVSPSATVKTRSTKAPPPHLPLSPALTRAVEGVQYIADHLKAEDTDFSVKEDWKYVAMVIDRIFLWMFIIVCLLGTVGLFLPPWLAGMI
T1 sequence (P17787 26-502): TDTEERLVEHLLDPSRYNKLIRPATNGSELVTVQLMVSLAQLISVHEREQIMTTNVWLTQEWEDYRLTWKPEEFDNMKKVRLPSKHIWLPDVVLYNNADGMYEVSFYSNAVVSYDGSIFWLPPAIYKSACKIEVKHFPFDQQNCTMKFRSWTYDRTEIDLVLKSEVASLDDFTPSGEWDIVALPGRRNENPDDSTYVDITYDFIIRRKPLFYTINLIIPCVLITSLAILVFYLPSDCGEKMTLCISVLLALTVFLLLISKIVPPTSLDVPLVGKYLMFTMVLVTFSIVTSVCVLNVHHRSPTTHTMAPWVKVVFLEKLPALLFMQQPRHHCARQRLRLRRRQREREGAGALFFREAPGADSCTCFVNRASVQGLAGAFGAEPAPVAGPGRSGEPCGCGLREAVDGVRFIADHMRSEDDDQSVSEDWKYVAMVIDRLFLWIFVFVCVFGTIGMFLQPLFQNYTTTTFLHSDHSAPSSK

With `N#Cc1cccc(-n2cc(-c3cccnc3)nn2)c1` [Compound 1, 3-(4-Pyridin-3-yl-[1,2,3]triazol-1-yl)-benzonitrile], in data set [1], the Delta pEC50 is 1.6.

Consider `c1cncc(-c2cn(-c3cccnc3)nn2)c1` [Compound 1B, 3-(1-Pyridin-3-yl-1H-[1,2,3]triazol-4-yl)-pyridine], for which the melting point lay in the range of 217 to 219 °C.

Turning to `Fc1cccc(Cl)c1-c1cn(-c2cccnc2)nn1` [Compound 1E, 3-[4-(2-Chloro-6-fluoro-phenyl)-[1,2,3]triazol-1-yl]-pyridine], the melting point lay in the range of 94 to 95.2 °C.

For `[C-]#[N+]c1cccc(-c2cn(-c3ccc(Cl)nc3)nn2)c1` [Compound 1G, 2-Chloro-5-[4-(3-isocyano-phenyl)-[1,2,3]triazol-1-yl]-pyridine], the melting point was in the range of 202.2 to 203.6 °C.

In turn, `N#Cc1cccc(-n2cc(-c3ccc(Cl)nc3)nn2)c1` [Compound 1H, 3-[4-(6-Chloro-pyridin-3-yl)-[1,2,3]triazol-1-yl]-benzonitrile] registered a melting point of 219.3 to 220 °C.

In turn, `Fc1cccc(Cl)c1-n1cc(-c2cccnc2)nn1` [Compound 1I, 3-[1-(2-Chloro-6-fluoro-phenyl)-1H-[1,2,3]triazol-4-yl]-pyridine] returned a melting point of 94.5 to 97.1 °C.

Molecule `N#Cc1cccc(-n2cc(-c3cccnc3Cl)nn2)c1` [Compound 1J, 3-[4-(2-Chloro-pyridin-3-yl)-[1,2,3]triazol-1-yl]-benzonitrile] gave a melting point of 181 to 182.6 °C.

`[C-]#[N+]c1cccc(-c2cn(-c3cccnc3Cl)nn2)c1` [Compound 1K, 2-Chloro-3-[4-(3-isocyano-phenyl)-[1,2,3]triazol-1-yl]-pyridine] registered a melting point of 184 to 185 °C.

Take `Fc1cncc(-c2cn(-c3cccnc3)nn2)c1` [Compound 1L, 3-Fluoro-5-(1-pyridin-3-yl-1H-[1,2,3]triazol-4-yl)-pyridine]: the melting point is 190.2 to 191.6 °C.

Take `Fc1ccc(-c2cn(-c3cccnc3)nn2)cn1` [Compound 1M, 2-Fluoro-5-(1-pyridin-3-yl-1H-[1,2,3]triazol-4-yl)-pyridine]: the melting point was in the range of 187 to 188.7 °C.

`COc1ccc(-c2cn(-c3cccnc3)nn2)cn1` [Compound 1N, 2-Methoxy-5-(1-pyridin-3-yl-1H-[1,2,3]triazol-4-yl)-pyridine] gave a melting point of 205.6 to 206.9 °C.

With `Fc1cncc(-n2cc(-c3cccnc3)nn2)c1` [Compound 1O, 3-Fluoro-5-(4-pyridin-3-yl-[1,2,3]triazol-1-yl)-pyridine], the melting point lay within 190.6 to 191.7 °C.

Consider `Fc1ccc(-n2cc(-c3cccnc3)nn2)cn1` [Compound 1P, 2-Fluoro-5-(4-pyridin-3-yl-[1,2,3]triazol-1-yl)-pyridine], for which the melting point lay in the range of 221.3 to 222.6 °C.

In turn, `Brc1cncc(-n2cc(-c3cccnc3)nn2)c1` [Compound 1Q, 3-Bromo-5-(4-pyridin-3-yl-[1,2,3]triazol-1-yl)-pyridine] came in with a melting point of 226.2 to 227.8 °C.

The molecule `Fc1cccc(-n2cc(-c3cccnc3)nn2)c1` [Compound 1R, 3-[1-(3-Fluoro-phenyl)-1H-[1,2,3]triazol-4-yl]-pyridine] had a melting point of 156.3 to 158.2 °C.

The molecule `Fc1ccc(-n2cc(-c3cccnc3)nn2)cc1` [Compound 1S, 3-[1-(4-Fluoro-phenyl)-1H-[1,2,3]triazol-4-yl]-pyridine] had a melting point of 179.9 to 190.9 °C.

Turning to `N#Cc1ccc(-n2cc(-c3cccnc3)nn2)o1` [Compound 2, 5-(4-pyridin-3-yl-[1,2,3]triazol-1-yl)-furan-2-carbonitrile], the Delta pEC50 in data set [1] turned out to be 1.2.

By melting point is commonly meant the temperature, or range, at which the solid turns liquid.
